Calls of active or inactive are those of the source. The rule behind the calls is not given here.
Experiments:
[1] = test system: Legumain (Sus scrofa); assay: Inhibitory activity against legumain
[2] = target: Cathepsin B (Homo sapiens) (UniProt P07858); assay: Inhibitory activity against Cathepsin B
[3] = target: T1, Caspase-3 (Homo sapiens) (UniProt P42574); assay: Inhibitory activity against Caspase-3
T1 sequence (whole entry): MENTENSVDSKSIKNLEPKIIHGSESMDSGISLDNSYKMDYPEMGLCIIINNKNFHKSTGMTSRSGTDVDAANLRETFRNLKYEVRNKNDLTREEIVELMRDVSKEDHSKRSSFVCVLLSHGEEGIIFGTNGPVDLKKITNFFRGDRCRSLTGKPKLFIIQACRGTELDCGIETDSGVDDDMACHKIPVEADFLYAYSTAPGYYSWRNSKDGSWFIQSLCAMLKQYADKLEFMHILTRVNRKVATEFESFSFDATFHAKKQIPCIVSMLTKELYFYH

[4] = target: T2, Caspase-1 (Homo sapiens) (UniProt P29466); assay: Inhibitory activity against Caspase-1
T2 sequence (whole entry): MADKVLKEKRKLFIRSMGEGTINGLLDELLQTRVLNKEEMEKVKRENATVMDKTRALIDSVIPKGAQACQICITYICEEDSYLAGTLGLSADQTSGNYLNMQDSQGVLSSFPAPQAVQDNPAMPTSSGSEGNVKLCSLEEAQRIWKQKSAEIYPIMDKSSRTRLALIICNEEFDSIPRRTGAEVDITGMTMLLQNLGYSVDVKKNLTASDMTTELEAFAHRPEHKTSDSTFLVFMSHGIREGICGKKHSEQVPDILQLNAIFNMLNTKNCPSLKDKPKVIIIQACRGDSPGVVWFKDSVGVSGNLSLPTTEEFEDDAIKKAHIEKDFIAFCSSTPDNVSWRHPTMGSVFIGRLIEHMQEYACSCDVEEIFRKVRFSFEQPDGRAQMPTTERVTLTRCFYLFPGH

[5] = target: T3, Papain (Carica papaya) (UniProt P00784); assay: Inhibitory activity against papain.
T3 sequence (whole entry): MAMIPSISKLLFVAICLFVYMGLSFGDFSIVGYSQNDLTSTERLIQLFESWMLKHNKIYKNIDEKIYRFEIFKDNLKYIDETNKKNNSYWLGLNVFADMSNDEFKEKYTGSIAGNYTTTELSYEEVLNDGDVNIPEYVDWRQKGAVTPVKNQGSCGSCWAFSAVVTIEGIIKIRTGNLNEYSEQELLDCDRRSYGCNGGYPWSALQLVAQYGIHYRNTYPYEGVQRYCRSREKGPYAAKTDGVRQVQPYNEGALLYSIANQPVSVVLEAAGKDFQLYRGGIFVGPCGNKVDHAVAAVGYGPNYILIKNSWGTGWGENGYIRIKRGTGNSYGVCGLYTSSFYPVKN

[6] = target: T4, Caspase-6 (Homo sapiens) (UniProt P55212); assay: Inhibitory activity against Caspase-6
T4 sequence (whole entry): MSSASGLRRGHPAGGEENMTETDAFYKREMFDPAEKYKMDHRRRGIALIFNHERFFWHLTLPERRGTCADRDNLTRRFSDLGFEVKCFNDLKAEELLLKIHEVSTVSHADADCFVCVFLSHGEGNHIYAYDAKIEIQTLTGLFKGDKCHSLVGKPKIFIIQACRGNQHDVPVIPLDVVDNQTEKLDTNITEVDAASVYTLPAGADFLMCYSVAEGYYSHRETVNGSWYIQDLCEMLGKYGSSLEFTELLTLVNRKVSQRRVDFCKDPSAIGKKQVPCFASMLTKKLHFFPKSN

[7] = target: Caspase-8 (Homo sapiens) (UniProt Q14790); assay: Inhibitory activity against Caspase-8
Chain of Caspase-8 (Homo sapiens) (Q14790 217-374 limits assumed): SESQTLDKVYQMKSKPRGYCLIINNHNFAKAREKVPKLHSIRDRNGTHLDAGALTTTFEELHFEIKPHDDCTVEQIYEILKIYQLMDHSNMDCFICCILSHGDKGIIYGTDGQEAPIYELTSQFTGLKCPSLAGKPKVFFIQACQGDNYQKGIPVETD
Chain of Caspase-8 (Homo sapiens) (Q14790 385-479 limits assumed): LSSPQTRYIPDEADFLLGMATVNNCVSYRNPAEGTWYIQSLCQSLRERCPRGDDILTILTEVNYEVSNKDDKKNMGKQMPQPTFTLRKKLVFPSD

[8] = target: T3, Papain (Carica papaya); assay: Inhibitory activity against papain; No inhibition
[9] = target: Cathepsin B (Homo sapiens) (UniProt P07858); assay: Inhibitory activity against Cathepsin B; No inhibition
[10] = test system: Legumain (Sus scrofa); assay: Inhibitory activity against legumain; No inhibition

Row | k obs / 1 [1] | k obs / 1 [2] | k obs / 1 [3] | k obs / 1 [4] | k obs / 1 [5] | k obs / 1 [6] | k obs / 1 [7] | NI [8] | NI [9] | NI [10] | k obs / 1 [8] | SMILES
1 | 21 M⁻¹ s⁻¹ | < 10 M⁻¹ s⁻¹ | 58 M⁻¹ s⁻¹ | 36200 M⁻¹ s⁻¹ | < 10 M⁻¹ s⁻¹ | 52 M⁻¹ s⁻¹ | 63 M⁻¹ s⁻¹ | – | – | – | – | CC(C)[C@H](NC(=O)CCc1ccccc1)C(=O)N[C@@H](C)C(=O)NN(CC(=O)O)C(=O)C1OC1C(=O)OCc1ccccc1 (stereo not given in full)
2 | – | – | < 10 M⁻¹ s⁻¹ | 6130 M⁻¹ s⁻¹ | – | < 10 M⁻¹ s⁻¹ | < 10 M⁻¹ s⁻¹ | inactive | inactive | inactive | – | CC(C)[C@H](NC(=O)CCc1ccccc1)C(=O)N[C@@H](C)C(=O)NN(CC(=O)O)C(=O)C1OC1CCc1ccccc1 (stereo not given in full)
3 | 142 M⁻¹ s⁻¹ | – | – | – | – | – | – | inactive | inactive | – | – | CCOC(=O)C1OC1C(=O)N(CC(N)=O)NC(=O)[C@@H](C)NC(=O)[C@@H](C)NC(=O)Cc1ccccc1 (stereo in doubt; 17)
4 | – | – | – | – | – | – | – | – | inactive | inactive | 35 M⁻¹ s⁻¹ | CCOC(=O)C1OC1C(=O)N(CC(C)C)NC(=O)[C@@H](CC(C)C)NC(=O)[C@@H](CC(C)C)NC(=O)Cc1ccccc1 (stereo in doubt; 20)

— ChEMBL document CHEMBL1135610, “Aza-peptide epoxides: a new class of inhibitors selective for clan CD cysteine proteases” (J Med Chem, 2002)
